Results reported in US10011607B2, “Ethynyl derivatives” (Hoffmann-La Roche Inc., priority 2015, dated 2018).

Target: human mGlu4 receptor (Homo sapiens (Human), UniProt Q14833)
Test: Ca2+ mobilization in vitro assay on recombinant human mGlu4 expressed in HEK293 cells (PAM)
Type: cell-based
Details: for Emax: HEK293, maximal response in % of maximal stimulatory effect of saturating L-AP4, read-out: Eff. (%); for EC50: HEK293 cells, human mGlu4, in presence of EC20 of L-AP4, read-out: EC50 (nM) mGlu4PAM
Summary of the method: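 HEK293 cells stably expressing human mGlu4 at low level, Fluo-4AM loaded; compound (11 half-log dilutions) pre-incubated 10–30 min at 37 °C, then L-AP4 added at EC20 (determined daily). Peak fluorescence minus basal, normalized to saturating L-AP4; EC50, Hill slope and % Emax from four-parameter fit.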

Sequence of human mGlu4 receptor (Q14833 33-912): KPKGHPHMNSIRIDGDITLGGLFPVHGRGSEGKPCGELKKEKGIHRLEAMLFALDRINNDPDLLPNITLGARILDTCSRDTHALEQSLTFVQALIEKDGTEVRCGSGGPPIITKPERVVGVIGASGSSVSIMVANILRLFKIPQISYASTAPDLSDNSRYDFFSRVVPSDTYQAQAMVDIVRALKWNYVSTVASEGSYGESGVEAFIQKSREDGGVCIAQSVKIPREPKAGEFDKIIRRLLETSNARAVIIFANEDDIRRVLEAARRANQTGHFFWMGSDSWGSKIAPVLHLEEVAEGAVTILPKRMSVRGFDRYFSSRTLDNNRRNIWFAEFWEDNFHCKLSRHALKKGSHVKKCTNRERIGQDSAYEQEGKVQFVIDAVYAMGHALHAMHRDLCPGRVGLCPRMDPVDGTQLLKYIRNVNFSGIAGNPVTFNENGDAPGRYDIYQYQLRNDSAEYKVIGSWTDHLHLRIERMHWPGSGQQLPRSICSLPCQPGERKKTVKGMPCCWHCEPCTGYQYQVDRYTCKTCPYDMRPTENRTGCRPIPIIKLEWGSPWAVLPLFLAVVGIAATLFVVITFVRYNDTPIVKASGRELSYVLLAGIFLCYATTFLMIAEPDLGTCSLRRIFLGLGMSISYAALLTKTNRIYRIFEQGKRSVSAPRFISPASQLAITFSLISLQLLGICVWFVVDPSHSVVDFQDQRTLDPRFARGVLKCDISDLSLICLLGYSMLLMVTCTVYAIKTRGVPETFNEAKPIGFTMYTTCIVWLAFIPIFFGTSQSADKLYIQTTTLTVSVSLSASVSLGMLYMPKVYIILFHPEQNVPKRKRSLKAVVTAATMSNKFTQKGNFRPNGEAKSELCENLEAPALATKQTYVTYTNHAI

Structure (SMILES) | Emax | EC50
Cn1ccc(N2CCN3C(=O)N(c4c(F)cc(C#Cc5ccccc5)cc4F)C(=O)CC3(C)C2=O)n1 (racemic) [Example 62, (9aRS)-7-[2,6-difluoro-4-(2-phenylethynyl)phenyl]-9a-methyl-2-(1-methylpyrazol-3-yl)-4,9-dihydro-3H-pyrazino[1,2-c]pyrimidine-1,6,8-trione] | 112% | 149 nM
COCCN1CCN2C(=O)N(c3c(F)cc(C#Cc4ccccc4)cc3F)C(=O)C[C@@]2(C)C1=O [Example 79, (9aS)-7-[2,6-difluoro-4-(2-phenylethynyl)phenyl]-2-(2-methoxyethyl)-9a-methyl-4,9-dihydro-3H-pyrazino[1,2-c]pyrimidine-1,6,8-trione] | 122% | 137 nM
CC12CC(=O)N(c3c(F)cc(C#Cc4ccccc4)cc3F)C(=O)N1CCN(c1nccs1)C2=O (racemic) [Example 52, (9aRS)-7-[2,6-difluoro-4-(2-phenylethynyl)phenyl]-9a-methyl-2-thiazol-2-yl-4,9-dihydro-3H-pyrazino[1,2-c]pyrimidine-1,6,8-trione] | 97% | 113 nM
Cc1cncc(N2CCN3C(=O)N(c4c(F)cc(C#Cc5ccccc5)cc4F)C(=O)CC3(C)C2=O)c1 (racemic) [Example 14, (9aRS)-7-[2,6-difluoro-4-(2-phenylethynyl)phenyl]-9a-methyl-2-(5-methyl-3-pyridyl)-4,9-dihydro-3H-pyrazino[1,2-c]pyrimidine-1,6,8-trione] | 129% | 105 nM
CC12CC(=O)N(c3c(F)cc(C#Cc4ccccc4)cc3F)C(=O)N1CCN(c1ccnc(Cl)c1)C2=O (racemic) [Example 18, (9aRS)-2-(2-chloro-4-pyridyl)-7-[2,6-difluoro-4-(2-phenylethynyl)phenyl]-9a-methyl-4,9-dihydro-3H-pyrazino[1,2-c]pyrimidine-1,6,8-trione] | 131% | 114 nM
Cc1cnc(N2CCN3C(=O)N(c4c(F)cc(C#Cc5ccccc5)cc4F)C(=O)CC3(C)C2=O)s1 (racemic) [Example 53, (9aRS)-7-[2,6-difluoro-4-(2-phenylethynyl)phenyl]-9a-methyl-2-(5-methylthiazol-2-yl)-4,9-dihydro-3H-pyrazino[1,2-c]pyrimidine-1,6,8-trione] | 100% | 88 nM
C[C@@]12CC(=O)N(c3c(F)cc(C#Cc4ccccc4)cc3F)C(=O)N1CCN(CC(F)(F)F)C2=O [Example 81, (9aS)-7-[2,6-difluoro-4-(2-phenylethynyl)phenyl]-9a-methyl-2-(2,2,2-trifluoroethyl)-4,9-dihydro-3H-pyrazino[1,2-c]pyrimidine-1,6,8-trione] | 172% | 112 nM
CC12CC(=O)N(c3c(F)cc(C#Cc4ccccc4)cc3F)C(=O)N1CCN(c1cnccn1)C2=O (racemic) [Example 32, (9aRS)-7-[2,6-difluoro-4-(2-phenylethynyl)phenyl]-9a-methyl-2-pyrazin-2-yl-4,9-dihydro-3H-pyrazino[1,2-c]pyrimidine-1,6,8-trione] | 112% | 88 nM
Cc1cc(N2CCN3C(=O)N(c4c(F)cc(C#Cc5ccccc5)cc4F)C(=O)CC3(C)C2=O)nc(C)n1 (racemic) [Example 29, (9aRS)-7-[2,6-difluoro-4-(2-phenylethynyl)phenyl]-2-(2,6-dimethylpyrimidin-4-yl)-9a-methyl-4,9-dihydro-3H-pyrazino[1,2-c]pyrimidine-1,6,8-trione] | 112% | 177 nM
C[C@@]12CC(=O)N(c3c(F)cc(C#Cc4ccccc4)cc3F)C(=O)N1CCN(Cc1cccc(F)c1)C2=O [Example 90, (9aS)-7-[2,6-difluoro-4-(2-phenylethynyl)phenyl]-2-[(3-fluorophenyl)methyl]-9a-methyl-4,9-dihydro-3H-pyrazino[1,2-c]pyrimidine-1,6,8-trione] | 109% | 187 nM
C[C@@]12CC(=O)N(c3c(F)cc(C#Cc4ccccc4)cc3F)C(=O)N1CCN(c1ccccn1)C2=O [Example 5, (9aS)-7-[2,6-difluoro-4-(2-phenylethynyl)phenyl]-9a-methyl-2-(2-pyridyl)-4,9-dihydro-3H-pyrazino[1,2-c]pyrimidine-1,6,8-trione] | 92% | 46 nM
Cn1cc(CN2CCN3C(=O)N(c4c(F)cc(C#Cc5ccccc5)cc4F)C(=O)CC3(C)C2=O)cn1 (racemic) [Example 96, (9aRS)-7-[2,6-difluoro-4-(2-phenylethynyl)phenyl]-9a-methyl-2-[(1-methylpyrazol-4-yl)methyl]-4,9-dihydro-3H-pyrazino[1,2-c]pyrimidine-1,6,8-trione] | 151% | 214 nM
Cc1ccc(CN2CCN3C(=O)N(c4c(F)cc(C#Cc5ccccc5)cc4F)C(=O)CC3(C)C2=O)cc1 (racemic) [Example 84, (9aRS)-7-[2,6-difluoro-4-(2-phenylethynyl)phenyl]-9a-methyl-2-(p-tolylmethyl)-4,9-dihydro-3H-pyrazino[1,2-c]pyrimidine-1,6,8-trione] | 87% | 117 nM
Cn1ncc(N2CCN3C(=O)N(c4c(F)cc(C#Cc5ccccc5)cc4F)C(=O)CC3(C)C2=O)cc1=O (racemic) [Example 51, (9aRS)-7-[2,6-difluoro-4-(2-phenylethynyl)phenyl]-9a-methyl-2-(1-methyl-6-oxo-pyridazin-4-yl)-4,9-dihydro-3H-pyrazino[1,2-c]pyrimidine-1,6,8-trione] | 120% | 191 nM
C[C@@]12CC(=O)N(c3c(F)cc(C#Cc4ccccc4)cc3F)C(=O)N1CCN(c1cnc(O)nc1)C2=O [Example 42, (9aS)-7-[2,6-difluoro-4-(2-phenylethynyl)phenyl]-2-(2-hydroxypyrimidin-5-yl)-9a-methyl-4,9-dihydro-3H-pyrazino[1,2-c]pyrimidine-1,6,8-trione] | 129% | 73 nM
COCC12CC(=O)N(c3c(F)cc(C#Cc4ccccc4)cc3F)C(=O)N1CCN(c1cccnc1)C2=O (racemic) [Example 102, (9aRS)-7-[2,6-difluoro-4-(2-phenylethynyl)phenyl]-9a-(methoxymethyl)-2-(3-pyridyl)-4,9-dihydro-3H-pyrazino[1,2-c]pyrimidine-1,6,8-trione] | 136% | 129 nM
Cc1ccnc(N2CCN3C(=O)N(c4c(F)cc(C#Cc5ccccc5)cc4F)C(=O)CC3(C)C2=O)c1 (racemic) [Example 12, (9aRS)-7-(2,6-difluoro-4-(phenylethynyl)phenyl)-9a-methyl-2-(4-methylpyridin-2-yl)tetrahydro-1H-pyrazino[1,2-c]pyrimidine-1,6,8(2H,7H)-trione] | 126% | 131 nM
CC12CC(=O)N(c3c(F)cc(C#Cc4ccccc4)cc3F)C(=O)N1CCN(c1ncc(C(F)(F)F)s1)C2=O (racemic) [Example 57, (9aRS)-7-[2,6-difluoro-4-(2-phenylethynyl)phenyl]-9a-methyl-2-[5-(trifluoromethyl)thiazol-2-yl]-4,9-dihydro-3H-pyrazino[1,2-c]pyrimidine-1,6,8-trione] | 103% | 108 nM
Cn1nc(N2CCN3C(=O)N(c4c(F)cc(C#Cc5ccccc5)cc4F)C(=O)C[C@@]3(C)C2=O)ccc1=O [Example 49, (9aS)-7-[2,6-difluoro-4-(2-phenylethynyl)phenyl]-9a-methyl-2-(1-methyl-6-oxo-pyridazin-3-yl)-4,9-dihydro-3H-pyrazino[1,2-c]pyrimidine-1,6,8-trione] | 109% | 197 nM
C[C@@]12CC(=O)N(c3c(F)cc(C#Cc4ccccc4)cc3F)C(=O)N1CCN(CCn1ccnc1)C2=O [Example 98, (9aS)-7-[2,6-difluoro-4-(2-phenylethynyl)phenyl]-2-(2-imidazol-1-ylethyl)-9a-methyl-4,9-dihydro-3H-pyrazino[1,2-c]pyrimidine-1,6,8-trione] | 135% | 283 nM
CCn1cc(N2CCN3C(=O)N(c4c(F)cc(C#Cc5ccccc5)cc4F)C(=O)C[C@@]3(C)C2=O)cn1 [Example 69, (9aS)-7-[2,6-difluoro-4-(2-phenylethynyl)phenyl]-2-(1-ethylpyrazol-4-yl)-9a-methyl-4,9-dihydro-3H-pyrazino[1,2-c]pyrimidine-1,6,8-trione] | 184% | 151 nM
CC12CC(=O)N(c3c(F)cc(C#Cc4ccccc4)cc3F)C(=O)N1CCN(c1nc(C#N)cs1)C2=O (racemic) [Example 55, 2-[(9aRS)-7-[2,6-difluoro-4-(2-phenylethynyl)phenyl]-9a-methyl-1,6,8-trioxo-4,9-dihydro-3H-pyrazino[1,2-c]pyrimidin-2-yl]thiazole-4-carbonitrile] | 94% | 77 nM
C[C@@]12CC(=O)N(c3c(F)cc(C#Cc4ccccc4)cc3F)C(=O)N1CCN(c1ccc(Cl)nc1)C2=O [Example 21, (9aS)-2-(6-chloro-3-pyridyl)-7-[2,6-difluoro-4-(2-phenylethynyl)phenyl]-9a-methyl-4,9-dihydro-3H-pyrazino[1,2-c]pyrimidine-1,6,8-trione] | 142% | 73 nM
COC[C@@]12CC(=O)N(c3c(F)cc(C#Cc4ccccc4)cc3F)C(=O)N1CCN(c1cnn(C)c1)C2=O [Example 105, (9aR)-7-[2,6-difluoro-4-(2-phenylethynyl)phenyl]-9a-(methoxymethyl)-2-(1-methylpyrazol-4-yl)-4,9-dihydro-3H-pyrazino[1,2-c]pyrimidine-1,6,8-trione] | 144% | 61 nM
Cc1cncnc1N1CCN2C(=O)N(c3c(F)cc(C#Cc4ccccc4)cc3F)C(=O)C[C@@]2(C)C1=O [Example 36, (9aS)-7-[2,6-difluoro-4-(2-phenylethynyl)phenyl]-9a-methyl-2-(5-methylpyrimidin-4-yl)-4,9-dihydro-3H-pyrazino[1,2-c]pyrimidine-1,6,8-trione] | 132% | 86 nM
